Results reported in DBAASP.
Values after ≈ are worked out from the molar mass of the structure shown. Values belong to the molecule of their own block, whether it stands above or below them.

Tests used:
Experiment in all cases: ≥ marks a high value that may be exact or a test limit, other limits are often not marked, values filed in µg/mL are converted to µM
Escherichia coli K-12 = system: Escherichia coli K-12
Klebsiella pneumoniae = system: Klebsiella pneumoniae
[1] = system: Pseudomonas aeruginosa PAO1
[2] = system: Staphylococcus aureus NCTC 8325-4
[3] = system: Candida albicans NCYC 1467
[4] = system: Escherichia coli NCTC 10418
[5] = system: Pseudomonas aeruginosa ATCC 27853
[6] = system: Staphylococcus aureus NCTC 10788
[7] = system: Staphylococcus aureus USA 300
[8] = system: Staphylococcus aureus ATCC 43300
[9] = system: Staphylococcus aureus NCTC 12493

Compound: CC(C)C[C@H](NC(=O)[C@H](CCCN=C(N)N)NC(=O)[C@H](CC(N)=O)NC(=O)[C@H](CC(C)C)NC(=O)[C@@H](N)CCCCN)C(=O)N[C@@H](CCCCN)C(=O)N[C@@H](CCC(=O)O)C(=O)N[C@@H](CCCCN)C(=O)N[C@@H](CC(N)=O)C(=O)N[C@@H](CCCCN)C(=O)N[C@@H](C)C(=O)N[C@@H](CCCCN)C(=O)N[C@@H](CC(N)=O)C(=O)N[C@@H](CO)C(=O)N[C@@H](CCCCN)C(=O)N[C@@H](CCC(=O)O)C(=O)N[C@@H](CC(N)=O)C(=O)N[C@@H](CC(N)=O)C(=O)O [KLNRLKEKNKAKNSKENN]
MIC [3]: ≥ 237 µM
MIC [4]: ≥ 237 µM
MIC [5]: > 237 µM
MIC [6]: ≥ 237 µM

Compound: CC[C@H](C)[C@H](NC(=O)[C@H](Cc1cnc[nH]1)NC(=O)[C@H](CCCCN)NC(=O)[C@@H](NC(=O)[C@@H](NC(=O)[C@H](CC(=O)O)NC(=O)[C@H](Cc1ccccc1)NC(=O)[C@H](Cc1c[nH]c2ccccc12)NC(=O)CN)C(C)C)C(C)C)C(=O)N[C@@H](C)C(=O)N[C@@H](CCCCN)C(=O)N[C@@H](CCCNC(=N)N)C(=O)N[C@@H](Cc1ccccc1)C(N)=O [GWFDVVKHIAKRF]
MIC (Escherichia coli K-12): 12.5 µM (≈ 20 µg/mL)
MIC [7]: ≥ 50 µM

Compound: CSCC[C@H](NC(=O)[C@H](CC(=O)O)NC(=O)[C@@H](NC(=O)[C@@H](NC(=O)[C@H](C)NC(=O)[C@H](CC(N)=O)NC(=O)[C@H](CC(C)C)NC(=O)[C@@H](NC(=O)[C@H](C)NC(=O)[C@H](CCCCN)NC(=O)CNC(=O)[C@H](C)NC(=O)[C@H](C)NC(=O)[C@H](CCCCN)NC(=O)CNC(=O)[C@@H](NC(=O)[C@H](CC(N)=O)NC(=O)[C@H](CCCCN)NC(=O)[C@H](CC(C)C)NC(=O)[C@H](CC(C)C)NC(=O)[C@@H](NC(=O)[C@H](CCCCN)NC(=O)[C@H](Cc1c[nH]c2ccccc12)NC(=O)[C@H](CC(C)C)NC(=O)[C@H](C)N)[C@@H](C)O)C(C)C)C(C)C)C(C)C)[C@@H](C)O)C(=O)N[C@H](C(=O)N[C@@H](CC(N)=O)C(=O)N[C@@H](CCC(N)=O)C(N)=O)C(C)C [ALWKTLLKNVGKAAGKAVLNAVTDMVNQ]
MIC [3]: 5.42 µM (≈ 16 µg/mL)
MIC [4]: 2.71 µM (≈ 8 µg/mL)
MIC [5]: 5.42 µM (≈ 16 µg/mL)
MIC [8]: 2.71 µM (≈ 8 µg/mL)
MIC [6]: 2.71 µM (≈ 8 µg/mL)
MIC [9]: 5.42 µM (≈ 16 µg/mL)

Continued, values first:

MIC (Escherichia coli K-12): 15.6 µM (≈ 22.9 µg/mL)
MIC (Klebsiella pneumoniae): > 500 µM
MIC [1]: 15.6 µM (≈ 22.9 µg/mL)
MIC [2]: ≥ 250 µM
Compound: CC[C@H](C)[C@H](N)C(=O)N[C@@H](CCCCN)C(=O)N[C@@H](CCCCN)C(=O)N[C@H](C(=O)N[C@H](C(=O)N[C@@H](CCCCN)C(=O)N[C@@H](CCCCN)C(=O)N[C@H](C(=O)N[C@H](C(=O)N[C@@H](CCCCN)C(=O)N[C@@H](CCCCN)C(=O)N[C@H](C(N)=O)[C@@H](C)CC)[C@@H](C)CC)[C@@H](C)CC)[C@@H](C)CC)[C@@H](C)CC [IKKIIKKIIKKI]

MIC (Escherichia coli K-12): ≥ 128 µM
MIC [5]: 64 µM (≈ 117 µg/mL)
Compound: CC[C@H](C)[C@H](NC(=O)[C@H](CCCCN)NC(=O)[C@H](CCCCN)NC(=O)[C@H](CC(C)C)NC(=O)[C@H](C)NC(=O)CNC(=O)[C@@H](NC(=O)[C@H](C)NC(=O)[C@H](CCCCN)NC(=O)[C@@H]1CCCN1C(=O)[C@H](CC(C)C)NC(=O)[C@H](CC(C)C)NC(=O)[C@H](CCCCN)NC(=O)[C@H](Cc1ccccc1)NC(=O)[C@H](Cc1ccccc1)NC(=O)[C@@H](N)Cc1ccccc1)[C@@H](C)CC)C(=O)O [FFFKLLPKAIGALKKI]
